Assay results as given in paper PMC12181431, “Unveiling the structure, function and dynamics of StmPr1 in Stenotrophomonas maltophilia virulence” (Scientific Reports, 2025).
Read-outs that look alike come from different tables or passages of the source.

Experiments:
[1] = biological target: T1, StmPr1 (Stenotrophomonas maltophilia, UniProt Q93IQ4); assay: X-ray crystal structure ([…] Å) plus protease activity assay; format: biochemical
T1 construct: StmPr1 36 kDa (self-digested from 47 kDa, C-terminal extension cleaved)

[2] = biological target: T2, Proteinase K (Parengyodontium album, UniProt P06873); assay: protease activity assay (same assay as for StmPr1); format: biochemical
T2 construct: gene PROK
T2 sequence (P06873 106-384): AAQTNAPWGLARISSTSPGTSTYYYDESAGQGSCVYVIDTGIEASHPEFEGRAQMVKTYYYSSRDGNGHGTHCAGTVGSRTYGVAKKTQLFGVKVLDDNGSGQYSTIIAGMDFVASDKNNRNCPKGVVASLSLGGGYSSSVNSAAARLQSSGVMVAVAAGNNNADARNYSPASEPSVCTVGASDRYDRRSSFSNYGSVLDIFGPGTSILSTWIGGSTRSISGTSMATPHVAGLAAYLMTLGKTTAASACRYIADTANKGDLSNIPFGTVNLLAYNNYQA

T1 sequence (Q93IQ4 entry or part of it): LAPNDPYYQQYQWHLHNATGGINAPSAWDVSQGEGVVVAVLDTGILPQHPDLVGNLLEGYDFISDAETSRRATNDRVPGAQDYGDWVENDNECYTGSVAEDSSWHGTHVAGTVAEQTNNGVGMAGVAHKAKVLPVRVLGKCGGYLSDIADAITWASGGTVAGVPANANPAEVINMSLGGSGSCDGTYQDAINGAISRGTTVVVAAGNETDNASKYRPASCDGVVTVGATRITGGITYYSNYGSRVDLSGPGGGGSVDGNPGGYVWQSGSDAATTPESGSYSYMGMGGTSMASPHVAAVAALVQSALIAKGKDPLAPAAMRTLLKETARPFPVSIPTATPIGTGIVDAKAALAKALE

| Compound | IC50 ([1]; read-out: IC50) [µM] | IC50 [2] [µM] | IC50 [1] [µM] |
| --- | --- | --- | --- |
| CC(C)C[C@H](NC(=O)[C@H](Cc1ccccc1)NC(=O)c1cnccn1)B(O)O [Bortezomib] | 1.97 | 1.45 | – |
| O=S(=O)(F)Cc1ccccc1 [PMSF] | – | – | 125 |
